According to US20230203060A1 (GENFLEET THERAPEUTICS (SHANGHAI) INC., priority 2020, published 2023):

Key:
[1] = tested on: phosphorylated ERK downstream of KRAS G12C in MIA PaCa2 cells; experiment: Cell p-ERK detection experiment (HTRF) in MIA PaCa2; format: cell-based, human; details: Homo sapiens, MIA PaCa-2, 2 h, MIA PaCa2 cells, 2 hours with compound, Advance ERK phospho-T202/Y204 HTRF kit; read-out: p-ERK IC50
How it was run: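 Phospho-ERK (T202/Y204) measured by HTRF after 30 min lysis and 4 h antibody incubation in MIA PaCa2 (KRAS G12C) cells, seeded at 2.5E4 per well and treated 2 h with compounds in 3.16-fold steps, final DMSO 0.1%. IC50 from a four-parameter fit of percent inhibition relative to DMSO and blank wells.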

KRAS G12C = target: T1, KRAS G12C (Homo sapiens, UniProt P01116, G12C); experiment: KRAS G12C NEA-HTRF experiment (SOS1-catalyzed displacement of GDP by GTP); format: biochemical
T1 construct: purchased Reactionbiology
T1 sequence (P01116 1-188 isoform P01116-2 G12C): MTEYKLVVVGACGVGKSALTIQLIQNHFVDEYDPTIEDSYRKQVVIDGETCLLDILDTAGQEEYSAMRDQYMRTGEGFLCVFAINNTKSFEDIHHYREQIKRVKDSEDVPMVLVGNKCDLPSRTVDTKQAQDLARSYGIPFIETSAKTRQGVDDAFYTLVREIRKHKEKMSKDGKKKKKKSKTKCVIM
How it was run: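 His-tagged KRAS G12C preloaded with DY647-GDP was preincubated 15 min at 20 °C with compound, then exchanged with SOS1 (0.2 μM working solution) and GTP (200 μM working solution) for 2 h at 20 °C in the dark. HTRF 665/615 nm ratio with anti-His-Tb was normalised to T0 and no-compound controls; IC50 by four-parameter fit.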

Compound	IC50 [1]	IC50 (KRAS G12C)
C=CC(=O)N1CCN2C(=O)c3c(N4CC(C)(C)OC[C@@H]4C)nc(-c4c(O)cccc4F)c(Cl)c3OC[C@H]2C1 [Z276-1, (6aR)-8-acryloyl-4-chloro-3-(2-fluoro-6-hydroxyphenyl)-1-((S)-2,2,5-trimethylmorpholino)-6,6a,7,8,9,10-hexahydro-12H-pyrazino[2,1-c]pyrido[3,4-f][1,4]oxazepin-12-one]	83 nM	113 nM
C=CC(=O)N1CCN2C(=O)c3c(N4CCC[C@@]4(C)CO)nc(-c4c(O)cccc4F)c(Cl)c3OC[C@H]2C1 [Z279-2]	35 nM	29 nM
C=CC(=O)N1CCN2C(=O)c3c(N4Cc5cn(C)nc5C4C)nc(-c4c(O)cccc4F)c(Cl)c3OC[C@H]2C1 (stereo partly drawn) [Z291-2]	24 nM	18 nM
C=CC(=O)N1CCN2C(=O)c3c(N4CCN(C)C(=O)[C@@H]4C)nc(-c4c(O)cccc4F)c(Cl)c3OC[C@H]2C1 [Z311-1, (6aR)-8-actyloyl-4-chloro-1-((S)-2,4-dimethyl-3-oxopiperazin-1-yl)-3-(2-fluoro-6-hydroxyphenyl)-6,6a,7,8,9,10-hexahydro-12H-pyrazino[2,1-c]pyrido[3,4-f][1,4]oxazepin-12-one]	70 nM	34 nM
C=CC(=O)N1CCN2C(=O)c3c(N4CCN(C5CC5)C[C@@H]4C)nc(-c4c(O)cccc4F)c(Cl)c3OC[C@H]2C1 [Z312-1, (6aR)-8-acryloyl-4-chloro-1-((S)-4-cyclopropyl-2-methylpiperazin-1-yl)-3-(2-fluoro-6-hydroxyphenyl)-6,6a,7,8,9,10-hexahydro-12H-pyrazino[2,1-c]pyrido[3,4-f][1,4]oxazepin-12-one]	194 nM	134 nM
C=CC(=O)N1CCN2C(=O)c3c(N4CCN(C(C)=O)C[C@@H]4C)nc(-c4c(O)cccc4F)c(Cl)c3OC[C@H]2C1 [Z313-1]	23 nM	13 nM
C=CC(=O)N1CCN2C(=O)c3c(N4CCN(C(=O)CC)C[C@@H]4C)nc(-c4c(O)cccc4F)c(Cl)c3OC[C@H]2C1 [Z316-1, (6aR)-8-acryloyl-4-chloro-3-(2-fluoro-6-hydroxyphenyl)-1-((S)-2-methyl-4-propionylpiperazin-1-yl)-6,6a,7,8,9,10-hexahydro-12H-pyrazino[2,1-c]pyrido[3,4-f][1,4]oxazepin-12-one]	20 nM	9 nM
C=CC(=O)N1CCN2C(=O)c3c(N4CCN(S(C)(=O)=O)C[C@@H]4C)nc(-c4c(O)cccc4F)c(Cl)c3OC[C@H]2C1 [Z318-1, (6aR)-8-acryloyl-1-((S)-2-methyl-4-(methylsulfonyl)piperazin-1-yl)-4-chloro-3-(2-fluoro-6-hydroxyphenyl)-6,6a,7,8,9,10-hexahydro-12H-pyrazino[2,1-c]pyrido[3,4-f][1,4]oxazepin-12-one]	87 nM	37 nM
C=CC(=O)N1CCN2C(=O)c3c(N4CC(=O)N(CC)C[C@@H]4C)nc(-c4c(O)cccc4F)c(Cl)c3OC[C@H]2C1 [Z319-1, (6aR)-8-acryloyl-4-chloro-1-((S)-4-ethyl-2-methyl-5-oxopiperazin-1-yl)-3-(2-fluoro-6-hydroxyphenyl)-6,6a,7,8,9,10-hexahydro-12H-pyrazino[2,1-c]pyrido[3,4-f][1,4]oxazepin-12-one]	16 nM	9 nM
C=CC(=O)N1CCN2C(=O)c3c(N4CCN(C(=O)C5CC5)C[C@@H]4C)nc(-c4c(O)cccc4F)c(Cl)c3OC[C@H]2C1 [Z320-1, (6aR)-8-acryloyl-4-chloro-1-((S)-4-(cyclopropanecarbonyl)-2-methylpiperazin-1-yl)-3-(2-fluoro-6-hydroxyphenyl)-6,6a,7,8,9,10-hexahydro-12H-pyrazino[2,1-c]pyrido[3,4-f][1,4]oxazepin-12-one]	17 nM	9 nM
C=CC(=O)N1CCN2C(=O)c3c(N4CCN(C)C[C@@H]4C)nc(-c4nc(N)cc(C)c4C(F)(F)F)c(Cl)c3OC[C@H]2C1 [Z328-1, (R)-8-acryloyl-3-(6-amino-4-methyl-3-(trifluoromethyl)pyridin-2-yl)-4-chloro-1-((S)-2,4-dimethylpiperazin-1-yl)-6,6a,7,8,9,10-hexahydro-12H-pyrazino[2,1-c]pyrido[3,4-f][1,4]oxazepin-12-one]	15 nM	15 nM
C=CC(=O)N1CCN2C(=O)c3c(N4CC[C@@H](OC)[C@@H]4C)nc(-c4c(O)cccc4F)c(Cl)c3OC[C@H]2C1 [Z338-1, (6aR)-8-acryloyl-4-chloro-3-(2-fluoro-6-hydroxyphenyl)-1-((2S,3R)-3-methoxy-2-methylpyrrolidin-1-yl)-6,6a,7,8,9,10-hexahydro-12H-pyrazino[2,1-c]pyrido[3,4-f][1,4]oxazepin-12-one]	46 nM	39 nM

Next, values leading:

IC50 [1]	IC50 (KRAS G12C)	Compound
26 nM	76 nM	C=CC(=O)N1CCN2C(=O)c3c(N4CCN(CCOC)C[C@@H]4C)nc(-c4c(O)cccc4F)c(Cl)c3OC[C@H]2C1 [Z257a, (6aR)-8-acryloyl-4-chloro-3-(2-fluoro-6-hydroxyphenyl)-1-((S)-4-(2-methoxyethyl)-2-methylpiperazin-1-yl)-6,6a,7,8,9,10-hexahydro-12H-pyrazino[2,1-c]pyrido[3,4-f][1,4]oxazepin-12-one]
27 nM	26 nM	C=CC(=O)N1CCN2C(=O)c3c(N4C[C@H](OC)C[C@@H]4C)nc(-c4c(O)cccc4F)c(Cl)c3OC[C@H]2C1 [Z259a, (6aR)-8-acryloyl-4-chloro-3-(2-fluoro-6-hydroxyphenyl)-1-((2S,4R)-4-methoxy-2-methylpyrrolidin-1-yl)-6,6a,7,8,9,10-hexahydro-12H-pyrazino[2,1-c]pyrido[3,4-f][1,4]oxazepin-12-one]
22 nM	27 nM	C=CC(=O)N1CCN2C(=O)c3c(N4C[C@@H](OC)C[C@@H]4C)nc(-c4c(O)cccc4F)c(Cl)c3OC[C@H]2C1 [Z260a, (6aR)-8-acryloyl-4-chloro-3-(2-fluoro-6-hydroxyphenyl)-1-((2S,4S)-4-methoxy-2-methylpyrrolidin-1-yl)-6,6a,7,8,9,10-hexahydro-12H-pyrazino[2,1-c]pyrido[3,4-f][1,4]oxazepin-12-one]
16 nM	21 nM	C=CC(=O)N1CCN2C(=O)c3c(N4CC(C#N)CC4(C)C)nc(-c4c(O)cccc4F)c(Cl)c3OC[C@H]2C1 (stereo partly drawn) [Z275, (6aR)-8-acryloyl-1-(4-cyano-2,2-dimethylpyrrolidin-1-yl)-4-chloro-3-(2-fluoro-6-hydroxyphenyl)-6,6a,7,8,9,10-hexahydro-12H-pyrazino[2,1-c]pyrido[3,4-f][1,4]oxazepin-12-one]
104 nM	36 nM	C=CC(=O)N1CCN2C(=O)c3c(N4Cc5cn(C)nc5C4(C)C)nc(-c4c(O)cccc4F)c(Cl)c3OC[C@H]2C1 [Z310, (6aR)-8-acryloyl-1-(2,6,6-trimethylpyrrolo[3,4-c]pyrazol-5(2H,4H,6H)-yl)-4-chloro-3-(2-fluoro-6-hydroxyphenyl)-6,6a,7,8,9,10-hexahydro-12H-pyrazino[2,1-c]pyrido[3,4-f][1,4]oxazepin-12-one]
62 nM	43 nM	C=CC(=O)N1CCN2C(=O)c3c(N4CCOCC4)nc(-c4nc(N)cc(C)c4C(F)(F)F)c(Cl)c3OC[C@H]2C1 [Z314]
62 nM	33 nM	C=CC(=O)N1CCN2C(=O)c3c(N4CCN(C(C)=O)C(C)(C)C4)nc(-c4c(O)cccc4F)c(Cl)c3OC[C@H]2C1 [Z315, (6aR)-1-(4-acetyl-3,3-dimethylpiperazin-1-yl)-8-acryloyl-4-chloro-3-(2-fluoro-6-hydroxyphenyl)-6,6a,7,8,9,10-hexahydro-12H-pyrazino[2,1-c]pyrido[3,4-f][1,4]oxazepin-12-one]
50 nM	78 nM	C=CC(=O)N1CCN2C(=O)c3c(N4CCN(CCOC)C(C)(C)C4)nc(-c4c(O)cccc4F)c(Cl)c3OC[C@H]2C1 [Z321, (6aR)-8-acryloyl-4-chloro-3-(2-fluoro-6-hydroxyphenyl)-1-(4-(2-methoxyethyl)-3,3-dimethylpiperazin-1-yl)-6,6a,7,8,9,10-hexahydro-12H-pyrazino[2,1-c]pyrido[3,4-f][1,4]oxazepin-12-one]
36 nM	62 nM	C=CC(=O)N1CCN2C(=O)c3c(N4CCN(CC)C(C)(C)C4)nc(-c4c(O)cccc4F)c(Cl)c3OC[C@H]2C1 [Z322, (6aR)-8-actyloyl-4-chloro-3-(2-fluoro-6-hydroxyphenyl)-1-(4-ethyl-3,3-dimethylpiperazin-1-yl)-6,6a,7,8,9,10-hexahydro-12H-pyrazino[2,1-c]pyrido[3,4-f][1,4]oxazepin-12-one]
6 nM	8 nM	C=CC(=O)N1CCN2C(=O)c3c(N4CC(N(C)C5COC5)CC4(C)C)nc(-c4c(O)cccc4F)c(Cl)c3OC[C@H]2C1 (stereo partly drawn) [Z326, (6aR)-8-acryloyl-4-chloro-1-(2,2-dimethyl-4-(methyl(oxetan-3-yl)amino)pyrrolidin-1-yl)-3-(2-fluoro-6-hydroxyphenyl)-6,6a,7,8,9,10-hexahydro-12H-pyrazino[2,1-c]pyrido[3,4-f][1,4]oxazepin-12-one]
62 nM	79 nM	C=CC(=O)N1CCN2C(=O)c3c(N4CCC(N(C)C)C4(C)C)nc(-c4c(O)cccc4F)c(Cl)c3OC[C@H]2C1 (stereo partly drawn) [Z334, (6aR)-8-acryloyl-4-chloro-1-(3-(dimethylamino)-2,2-dimethylpyrrolidin-1-yl)-3-(2-fluoro-6-hydroxyphenyl)-6,6a,7,8,9,10-hexahydro-12H-pyrazino[2,1-c]pyrido[3,4-f][1,4]oxazepin-12-one]
130 nM	78 nM	C=CC(=O)N1CCN2C(=O)c3c(N4CC(C#N)CC4(C)C)nc(-c4c(O)cccc4F)c(F)c3OC[C@H]2C1 (stereo partly drawn) [Z335]
